Data on 35 compounds can be found in patent publication US20230373939A1 (VERTEX PHARMACEUTICALS INCORPORATED, priority 2020, published 2023).

Like-named read-outs stand apart in the source and are kept apart here. Some results are limits rather than exact numbers.

In this assay the target is T1, F508del in NIH 3T3 cells (Homo sapiens, UniProt P13569, DEL508-508).
T1 construct: expressed in transfected cells
Briefly: 3T3 assay: membrane potential optical assay for F508del correction. It counts as cell-based. The text has this:
1. Membrane Potential Optical Methods for Assaying F508del Modulation Properties of Compounds
The assay utilizes fluorescent voltage sensing dyes to measure changes in membrane potential using a fluorescent plate reader (e.g., FLTPR III, Molecular Devices, Inc.) as a readout for increase in functional F508del in NIH 3T3 cells. The driving force for the response is the creation of a chloride ion gradient in conjunction with channel activation by a single liquid addition step after the cells have previously been treated with compounds and subsequently loaded with a voltage sensing dye.
2. Identification of Corrector Compounds
To identify correctors of F508del, a single-addition HTS assay format was developed. This HTS assay utilizes fluorescent voltage sensing dyes to measure changes in membrane potential on the FLIPR III as a measurement for increase in gating (conductance) of F508del in F508del NUT 3T3 cells. The F508del NUT 3T3 cell cultures were incubated with the corrector compounds at a range of concentrations for 18-24 hours at 37° C., and subsequently loaded with a redistribution dye. The driving force for the response is a Cl^− ion gradient in conjunction with channel activation with forskolin in a single liquid addition step using a fluorescent plate reader such as FLIPR III.
Bath Solution #1: (in mM) NaCl 160, KCl 4.5, CaCl2 2, MgCl2 1, HEPES 10, pH 7.4 with NaOH.
Chloride-free bath solution: Chloride salts in Bath Solution #1 (above) are substituted with gluconate salts.
NIH3T3 mouse fibroblasts stably expressing F508del were used for optical measurements of membrane potential. The cells were maintained at 37° C. in 5% CO2 and 90% humidity in Dulbecco's modified Eagle's medium supplemented with 2 mM glutamine, 10% fetal bovine serum, 1×NEAA, b-ME, 1×pen/strep, and 25 mM HEPES in 175 cm^2 culture flasks. For all optical assays, the cells were seeded at ˜20,000/well in 384-well Matrigel-coated plates. For the correction assays, the cells were cultured at 37° C. with and without compounds for 16-24 hours.

[1] abbreviates: NIH3T3, NIH 3T3 cells, F508del, read-out: 3T3 Max Activity (%).
[2] abbreviates: NIH 3T3 cells, F508del, read-out: 3T3 EC50.
Setting [3] is: NIH3T3, read-out: 3T3 Max Activity (%).

T1 sequence (P13569 with tags, fused parts or gaps DEL508-508): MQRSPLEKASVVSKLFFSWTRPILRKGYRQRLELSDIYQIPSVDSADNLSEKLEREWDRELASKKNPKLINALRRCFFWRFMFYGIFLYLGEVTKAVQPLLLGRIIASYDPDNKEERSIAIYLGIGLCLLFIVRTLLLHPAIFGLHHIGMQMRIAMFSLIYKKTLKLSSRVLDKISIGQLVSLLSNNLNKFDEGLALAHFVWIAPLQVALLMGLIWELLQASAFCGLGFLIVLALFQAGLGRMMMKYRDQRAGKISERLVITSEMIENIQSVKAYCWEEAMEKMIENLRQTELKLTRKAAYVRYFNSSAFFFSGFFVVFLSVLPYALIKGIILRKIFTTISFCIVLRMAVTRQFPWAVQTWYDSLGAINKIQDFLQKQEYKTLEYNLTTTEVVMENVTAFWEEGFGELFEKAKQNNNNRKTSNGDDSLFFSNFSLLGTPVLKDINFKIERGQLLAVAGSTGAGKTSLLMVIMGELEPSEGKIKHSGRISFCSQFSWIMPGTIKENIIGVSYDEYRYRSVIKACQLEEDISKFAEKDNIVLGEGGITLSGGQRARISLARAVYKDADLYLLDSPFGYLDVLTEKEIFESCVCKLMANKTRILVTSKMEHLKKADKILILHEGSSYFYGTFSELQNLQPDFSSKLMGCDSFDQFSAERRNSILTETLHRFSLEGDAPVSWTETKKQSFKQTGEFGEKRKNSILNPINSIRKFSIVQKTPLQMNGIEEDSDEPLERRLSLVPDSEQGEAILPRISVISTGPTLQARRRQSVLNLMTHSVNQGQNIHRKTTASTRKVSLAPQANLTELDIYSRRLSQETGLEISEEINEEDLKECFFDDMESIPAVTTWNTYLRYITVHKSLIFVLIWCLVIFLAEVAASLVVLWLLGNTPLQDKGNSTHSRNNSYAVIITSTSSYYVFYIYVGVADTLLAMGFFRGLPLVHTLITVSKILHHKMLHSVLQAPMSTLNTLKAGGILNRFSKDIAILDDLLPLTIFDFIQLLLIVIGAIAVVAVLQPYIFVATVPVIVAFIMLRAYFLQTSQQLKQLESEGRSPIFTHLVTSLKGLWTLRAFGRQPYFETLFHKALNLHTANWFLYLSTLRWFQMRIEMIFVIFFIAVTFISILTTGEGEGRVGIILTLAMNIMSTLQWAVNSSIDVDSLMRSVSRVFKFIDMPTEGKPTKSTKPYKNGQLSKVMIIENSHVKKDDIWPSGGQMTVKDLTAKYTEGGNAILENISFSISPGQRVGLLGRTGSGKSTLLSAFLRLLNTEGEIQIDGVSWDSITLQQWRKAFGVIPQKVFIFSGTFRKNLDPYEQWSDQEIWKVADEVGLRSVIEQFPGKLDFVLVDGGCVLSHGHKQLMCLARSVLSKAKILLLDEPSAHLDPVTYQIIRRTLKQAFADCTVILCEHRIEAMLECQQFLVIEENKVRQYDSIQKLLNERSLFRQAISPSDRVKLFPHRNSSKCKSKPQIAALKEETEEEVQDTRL

What is called EC50 is the concentration giving half of the maximal effect. `CC(C)c1sc(NS(=O)(=O)c2ccccc2)nc1-c1ccccc1` [Compound 17, N-(5-isopropyl-4-phenyl-thiazol-2-yl)benzenesulfonamide]: the Emax under setting [1] was above 60%. Also, the EC50 under setting [2] was 3 to 30 µM.
With `Nc1cccc(S(=O)(=O)Nc2nc(-c3ccccc3)c(Cc3cccc(C(=O)O)c3)s2)c1` [Compound 28, 3-[[2-[(3-aminophenyl)sulfonylamino]-4-phenyl-thiazol-5-yl]methyl]benzoic acid], the Emax under setting [1] is below 30%.
On to `Cc1sc(NS(=O)(=O)c2ccccc2)nc1-c1ccc2c(c1)OCCO2` [Compound 22, N-[4-(2,3-dihydro-1,4-benzodioxin-6-yl)-5-methyl-thiazol-2-yl]benzenesulfonamide], for which the Emax under setting [1] was in the range of 30 to 60%. Besides, the EC50 under setting [2] lay within 3 to 30 µM.
With `O=S(=O)(Nc1nn(-c2cccc(Cl)c2)cc1-c1ccccc1)c1ccccc1` [Compound 69, N-[1-(3-chlorophenyl)-4-phenyl-pyrazol-3-yl]benzenesulfonamide], the Emax under setting [3] was 30 to 60%. Moreover, the EC50 under setting [2] lay in the range of 1 to 3 µM.
Take `C=C(C)c1cc(NS(=O)(=O)c2ccccc2)nn1-c1c(C)cc(C)cc1C` [Compound 65, N-[5-isopropenyl-1-(2,4,6-trimethylphenyl)pyrazol-3-yl]benzenesulfonamide]: the Emax under setting [1] is above 60%. In addition, the EC50 under setting [2] is 1 to 3 µM.
Regarding `O=S(=O)(Nc1nn(Cc2ccccc2)cc1-c1cccc(Cl)c1)c1ccccc1` [Compound 109, N-[1-benzyl-4-(3-chlorophenyl)pyrazol-3-yl]benzenesulfonamide], the Emax under setting [1] is below 30%.
In the case of `COc1ccccc1Nc1nc(-c2sc(NS(=O)(=O)c3ccccc3)nc2C)cs1` [Compound 29, N-[5-[2-(2-methoxyanilino)thiazol-4-yl]-4-methyl-thiazol-2-yl]benzenesulfonamide], the Emax under setting [1] was 30 to 60%. In addition, under setting [2], the EC50 was 3 to 30 µM.
The like results for `C/C=C/c1ccc(NS(=O)(=O)c2ccccc2)nc1Oc1ccccc1` [Compound 141, N-[6-phenoxy-5-[(E)-prop-1-enyl]-2-pyridyl]benzenesulfonamide] were, in that order, above 60% and 1 to 3 µM.
For `CCCc1sc(NS(=O)(=O)c2ccccc2)nc1-c1ccc(OCC)cc1` [Compound 19, N-[4-(4-ethoxyphenyl)-5-propyl-thiazol-2-yl]benzenesulfonamide] the same measures were 30 to 60% and 1 to 3 µM.
The like results for `Cc1sc(NS(=O)(=O)c2ccccc2)nc1-c1ccccc1` [Compound 23, N-(5-methyl-4-phenyl-thiazol-2-yl)benzenesulfonamide] were, in that order, above 60% and 3 to 30 µM.
In the case of `Cc1cc(C)c(-n2nc(NS(=O)(=O)c3ccccc3)cc2Br)c(C)c1` [Compound 67, N-[5-bromo-1-(2,4,6-trimethylphenyl)pyrazol-3-yl]benzenesulfonamide], the Emax under setting [1] was above 60%. The EC50 under setting [2] was 1 to 3 µM.
On to `COc1ccccc1-c1cn(Cc2ccccc2)nc1NS(=O)(=O)c1ccccc1` [Compound 113, N-[1-benzyl-4-(2-methoxyphenyl)pyrazol-3-yl]benzenesulfonamide], for which the Emax under setting [1] is below 30%.
The same measure, in the same setting: the result for `O=S(=O)(Nc1nn(-c2cccc(Cl)c2)cc1-c1ccc(Cl)cc1)c1ccccc1` [Compound 88, N-[1-(3-chlorophenyl)-4-(4-chlorophenyl)pyrazol-3-yl]benzenesulfonamide] reads below 30%.
For the compound `Cc1cc(C)c(-n2nc(NS(=O)(=O)c3ccccc3)cc2-c2ccccc2Cl)c(C)c1` [Compound 58, N-[5-(2-chlorophenyl)-1-(2,4,6-trimethylphenyl)pyrazol-3-yl]benzenesulfonamide], the Emax under setting [1] is above 60%. In addition, the EC50 under setting [2] is below 1 µM.
Consider `Cc1sc(NS(=O)(=O)c2ccccc2)nc1-c1ccncc1` [Compound 43, N-[5-methyl-4-(4-pyridyl)thiazol-2-yl]benzenesulfonamide], for which, under setting [1], the Emax was below 30%.
The same measure, in the same setting: the same measure for `O=S(=O)(Nc1nc(C2CC2)cs1)c1ccccc1` [Compound 12, N-(4-cyclopropylthiazol-2-yl)benzenesulfonamide]: below 30%; for `Cc1nc(NS(=O)(=O)c2ccccc2)sc1-c1csc(Nc2ncccn2)n1` [Compound 44, N-[4-methyl-5-[2-(pyrimidin-2-ylamino)thiazol-4-yl]thiazol-2-yl]benzenesulfonamide]: below 30%; for `COc1ccccc1Cc1cnc(NS(=O)(=O)c2ccccc2)o1` [Compound 4, N-[5-[(2-methoxyphenyl)methyl]oxazol-2-yl]benzenesulfonamide]: below 30%.
As for `Nc1cccc(S(=O)(=O)Nc2nn(-c3ccccc3)cc2Cc2ccccc2)c1` [Compound 73, 3-amino-N-(4-benzyl-1-phenyl-pyrazol-3-yl)benzenesulfonamide], under setting [1], the Emax was in the range of 30 to 60%.
Still for that read-out and setting: the same measure for `CCCNC(=O)c1sc(NS(=O)(=O)c2ccccc2)nc1-c1ccccc1` [Compound 39, 2-(benzenesulfonamido)-4-phenyl-N-propyl-thiazole-5-carboxamide]: below 30%.
On to `O=S(=O)(Nc1nn(-c2ccccc2)cc1Cc1ccccc1)c1ccccc1` [Compound 74, N-(4-benzyl-1-phenyl-pyrazol-3-yl)benzenesulfonamide], for which the Emax under setting [1] was below 30%.
Still for that read-out and setting: the same measure for `CC(C)Cc1cn(-c2ccccc2)nc1NS(=O)(=O)c1ccccc1` [Compound 82, N-(4-isobutyl-1-phenyl-pyrazol-3-yl)benzenesulfonamide]: below 30%.
The compound `COc1cccc(-c2cc(NS(=O)(=O)c3ccccc3)nn2-c2c(C)cc(C)cc2C)c1` [Compound 50, N-[5-(3-methoxyphenyl)-1-(2,4,6-trimethylphenyl)pyrazol-3-yl]benzenesulfonamide] had an EC50 of 1 to 3 µM. The Emax under setting [3] was above 60%.
On to `C/C=C/c1ccc(NS(=O)(=O)c2ccccc2)nc1-c1ccc(C)cc1` [Compound 148], for which the Emax under setting [1] is above 60%. Under setting [2], the EC50 fell in the range of 1 to 3 µM.
For the compound `COCCNC(=O)c1sc(NS(=O)(=O)c2ccccc2)nc1-c1ccccc1` [Compound 35, 2-(benzenesulfonamido)-N-(2-methoxyethyl)-4-phenyl-thiazole-5-carboxamide], the Emax under setting [1] was below 30%.
As for `CCCc1sc(NS(=O)(=O)c2ccccc2)nc1-c1ccc(C)cc1C` [Compound 6, N-[4-(2,4-dimethylphenyl)-5-propyl-thiazol-2-yl]benzenesulfonamide], the Emax under setting [3] was above 60%. Under setting [2], the EC50 is below 1 µM.
On to `CCOC(=O)c1sc(NS(=O)(=O)c2ccccc2)nc1-c1ccccc1` [Compound 24, ethyl 2-(benzenesulfonamido)-4-phenyl-thiazole-5-carboxylate], for which, under setting [1], the Emax was above 60%. For the same compound, under setting [2], the EC50 lay within 3 to 30 µM.
The like results for `Cc1ccc(-c2nc(NS(=O)(=O)c3ccccc3)ccc2C)cc1C` [Compound 134, N-[6-(3,4-Dimethylphenyl)-5-methyl-2-pyridyl]benzenesulfonamide] were, in that order, above 60% and 3 to 30 µM.
`CC(C)=Cc1cn(Cc2ccccc2)nc1NS(=O)(=O)c1ccccc1` [Compound 104, N-[1-benzyl-4-(2-methylprop-1-enyl)pyrazol-3-yl]benzenesulfonamide]: under setting [1], the Emax is below 30%.
For `COc1ccc(-c2cn(-c3cccc(Cl)c3)nc2NS(=O)(=O)c2ccccc2)cc1` [Compound 90, N-[1-(3-chlorophenyl)-4-(4-methoxyphenyl)pyrazol-3-yl]benzenesulfonamide], the Emax under setting [1] was below 30%. In addition, the concentration giving a half-maximal response (EC50) under setting [2] was below 1 µM.
`Cn1cc(S(=O)(=O)Nc2nn(-c3ccccc3)cc2Cc2ccccc2)cn1` [Compound 72, N-(4-benzyl-1-phenyl-pyrazol-3-yl)-1-methyl-pyrazole-4-sulfonamide]: under setting [1], the Emax is below 30%.
The same measure, in the same setting: the same measure for `O=S(=O)(Nc1nn(-c2cccc(Cl)c2)cc1-c1ccccc1Cl)c1ccccc1` [Compound 89, N-[4-(2-chlorophenyl)-1-(3-chlorophenyl)pyrazol-3-yl]benzenesulfonamide]: below 30%.
For the compound `Cc1cc(C)c(-n2nc(NS(=O)(=O)c3ccccc3)cc2-c2ccccc2)c(C)c1` [Compound 68, N-[5-phenyl-1-(2,4,6-trimethylphenyl)pyrazol-3-yl]benzenesulfonamide], under setting [1], the Emax is above 60%. For the same compound, under setting [2], the EC50 was 1 to 3 µM.
As for `COC(=O)c1sc(NS(=O)(=O)c2ccccc2)nc1-c1ccc(C)cc1` [Compound 13, methyl 2-(benzenesulfonamido)-4-(p-tolyl)thiazole-5-carboxylate], the Emax under setting [1] was above 60%. In addition, the EC50 under setting [2] was 3 to 30 µM.
The like results for `COc1cccc(-c2cn(-c3cccc(Cl)c3)nc2NS(=O)(=O)c2ccccc2)c1` [Compound 91, N-[1-(3-chlorophenyl)-4-(3-methoxyphenyl)pyrazol-3-yl]benzenesulfonamide] were, in that order, 30 to 60% and 1 to 3 µM.
